# Test results published in US20250228241A1, “P[…] COMPOUND OR SALT THEREOF, PEST CONTROL AGENT CONTAINING SAID COMPOUND AS ACTIVE INGREDIENT, AND PEST CONTROL METHOD” (NIHON NOHYAKU CO., LTD., priority 2021, published 2025).
# Tests used:
# Assay type in all cases: in vivo
# [1] = test system: common cutworm (Spodoptera litura); experiment: Insecticidal test against the common cutworm (cabbage leaf dip); conditions: 500 ppm, cabbage leaf dipped about 30 seconds, second-instar larvae, 25° C., eight days after inoculation
# Procedure: A piece of cabbage leaf (cultivar; Shikidori) was dipped for about 30 seconds in a chemical solution prepared by diluting a preparation containing the present inventive compound as an active ingredient to adjust the concentration to 500 ppm. After air dried, it was placed in a plastic Petri dish with a diameter of 9 cm and inoculated with second-instar larvae of common cutworm, after which the dish was closed and then allowed to stand in a room thermostatted at 25° C. Eight days after the inoculation, the number of the alive insects were counted. The corrected mortality was calculated according to the following equation and the insecticidal effect was judged according to the following criterion. The test was carried out with triplicate groups of 10 insects.
# (§1) The Comparative test compound was tested in the same way, and the corrected mortality was calculated and judged.
# (§2) [formula] • Criterion: A: Corrected mortality 100% • B: Corrected mortality 99%-90% • C: Corrected mortality 89%-80% • D: Corrected mortality 79%-50%
# [2] = test system: smaller brown planthopper (Laodelphax striatellus); experiment: Insecticidal test against the smaller brown planthopper (rice seedling immersion); conditions: 500 ppm, rice seedling immersed 30 seconds, third instar nymphs, eight days after
# Source text: The present inventive compound was dispersed in water to adjust the concentration to 500 ppm and a rice seedling was immersed therein for 30 seconds; after air dried, the seedling was put in a test tube, 10 third instar nymphs were inoculated and the test tube was sealed with a cotton plug. Eight days after, the alive and dead insects were counted to calculate the corrected mortality according to the following equation and the insecticidal effect was judged according to the criterion shown below.
# as §1, §2
# [3] = test system: green peach aphid (Myzus persicae); experiment: Control value test against the green peach aphid (foliar spray on Chinese cabbage); conditions: 500 ppm spray on stems and leaves of Chinese cabbage, 6th day after spray
# Source text: Chinese cabbage was planted in plastic pots with a diameter of 8 cm and a height of 8 cm to breed green peach aphids, and the number of the infesting aphids in each pot was investigated. The present inventive compound was dispersed in water and diluted to a 500 ppm chemical solution, and the chemical solution was sprayed on the stems and leaves of the Chinese cabbage plants planted in the pots. After air drying, the pots were kept in a greenhouse. On the 6th day after the spray of the chemical solution, the number of the green peach aphids infesting on each Chinese cabbage plant was counted and the control value was calculated on the following equation, whereby the effect was judged according to the criterion below.
# The Comparative test compound was tested in the same way, and the control value was calculated and judged.
# [formula] • Ta: number of infestants before spraying in the treated group, • T: number of infestants after spraying in the treated group, • Ca: number of infestants before spraying in the untreated group, • C: number of infestants after spraying in the untreated group.
# • A: Control value 100% • B: Control value 99-90% • C: Control value 89-80% • D: Control value 79-50%
# [4] = test system: diamond back moth (Plutella xylostella); experiment: Insecticidal test against the diamond back moth (Chinese cabbage seedling with eggs, immersion); conditions: 500 ppm, seedling with eggs immersed about 30 seconds, 25° C., six days after immersion
# Procedure: The adult diamond back moths were released and allowed to oviposit on a Chinese cabbage seedling. Two days after the release, the seedling having the eggs deposited thereon was immersed for about 30 seconds in a liquid chemical prepared by diluting a preparation containing the present inventive compound as an active ingredient to adjust the concentration to 500 ppm. After air dried, it was allowed to stand in a room thermostatted at 25° C. Six days after the immersion, the alive insects were counted. The corrected mortality was calculated according to the following equation and the insecticidal effect was judged according to the criterion shown below. The test was carried out with triplicate groups.
# as §1, §2
# [5] = test system: Western honeybees (Apis mellifera); experiment: Safety test for the Western honeybee (oral acute toxicity test)
# Procedure: Seven to ten adult Western honeybees (Apis mellifera) were released in a plastic cage (8 cm×12 cm×20 cm), and after fasting for 2 hours, they were oral administered, using a 1.5 ml microtube, with a 50% sucrose solution as a test bait containing a chemical solution of a predetermined concentration. Four hours after the administration, the test bait was taken out, and the amount of the compound taken per animal was calculated from the remaining amount. At the same time, the animals were fed with a sufficient amount of 50% sucrose solution, maintained at 25° C., H55-75%, 16L8D. The numbers of dead and abnormal insects were counted after 24, 48 and 96 hours to calculate the median lethal dose (LD50 value). The untreated group was fed with a 50% sucrose solution […] and was maintained under the same conditions as the chemical-treated group.
Structure (SMILES),corrected mortality (activity class) [1],corrected mortality (activity class) [2],control value (activity class) [3],corrected mortality (activity class) [4],improvement in safety for the Western honeybee compared with the comparative compound ([5]; from oral LD50 values after 96 hours),"LD50 value for one adult honeybee ([5]; oral, after 96 hours, per adult honeybee) [µg]"
"C[C@H](NC(=O)c1cc(C(F)(F)F)cc(C(F)(F)F)c1)c1ncnn1-c1ncccn1 [comparative compound, (S)—N-(1-(1-(pyrimidin-2-yl)-1H-1,2,4-triazol-5-yl)ethyl)-3,5-bis(trifluoromethyl)benzamide, reference compound]",B or higher,B or higher,B or higher,B or higher,–,–
"C[C@H](NC(=O)c1cc(C(F)(F)F)cc(C(F)(F)F)c1)c1ncnn1-c1cc(C(F)(F)F)ncn1 [present inventive compound, (S)—N-(1-(1-(6-trifluoromethylpyrimidin-4-yl)-1H-1,2,4-triazol-5-yl)ethyl)-3,5-bis(trifluoromethyl)benzamide]",B or higher,B or higher,B or higher,B or higher,more than 200 times,2.04
